From US11584714B2 (priority 2018, dated 2023)
pIC50, pKi: −log10 of the molar value. Counter-ions that a name gives are not always drawn. Like-named read-outs stand apart in the source and are kept apart here.

Key:
Assay type in all cases: biochemical
[1] = biological target: MASP-2 (CCP1-CCP2-SP) (Homo sapiens (Human), UniProt O00187); assay: biochemical
[2] = tested on: Lectin Pathway; assay: Lectin pathway activation assay in human serum (mannan-coated ELISA, C3c detection); settings: 1% human serum
[3] = biological target: human α-thrombin (Homo sapiens (Human), UniProt P00734); assay: Enzymatic assay for thrombin (Boc-VPR-AMC substrate); settings: for pKi: read-out: Thrombin Ki; for Ki: Thrombin Ki (μM)
[4] = biological target: mMASP-2 (Mus musculus (Mouse), UniProt Q91WP0); assay: Enzymatic inhibition of mMASP-2
Sequence of mMASP-2 (Q91WP0 20-685): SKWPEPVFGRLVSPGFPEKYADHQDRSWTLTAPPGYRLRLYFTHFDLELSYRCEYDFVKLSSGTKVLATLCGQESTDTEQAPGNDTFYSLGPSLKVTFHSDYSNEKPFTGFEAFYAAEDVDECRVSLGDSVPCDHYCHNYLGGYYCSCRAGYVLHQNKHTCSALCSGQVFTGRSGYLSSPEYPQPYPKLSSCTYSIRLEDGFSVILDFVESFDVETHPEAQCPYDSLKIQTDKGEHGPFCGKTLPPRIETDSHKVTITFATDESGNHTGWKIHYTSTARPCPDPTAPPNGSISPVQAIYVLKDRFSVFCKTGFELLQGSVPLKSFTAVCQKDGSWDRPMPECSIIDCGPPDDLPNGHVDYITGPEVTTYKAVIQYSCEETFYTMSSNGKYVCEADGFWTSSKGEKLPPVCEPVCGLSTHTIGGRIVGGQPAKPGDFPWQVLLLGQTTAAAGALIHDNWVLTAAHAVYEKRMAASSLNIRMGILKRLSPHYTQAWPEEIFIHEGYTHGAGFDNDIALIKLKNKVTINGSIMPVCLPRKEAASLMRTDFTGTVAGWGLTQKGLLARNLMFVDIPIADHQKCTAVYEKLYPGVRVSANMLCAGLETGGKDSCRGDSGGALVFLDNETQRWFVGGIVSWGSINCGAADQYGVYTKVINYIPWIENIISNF

[5] = MASP-2 inhibition versus thrombin
[6] = selectivity for MASP-2 inhibition versus thrombin

Sequence of MASP-2 (CCP1-CCP2-SP) (O00187 445-686): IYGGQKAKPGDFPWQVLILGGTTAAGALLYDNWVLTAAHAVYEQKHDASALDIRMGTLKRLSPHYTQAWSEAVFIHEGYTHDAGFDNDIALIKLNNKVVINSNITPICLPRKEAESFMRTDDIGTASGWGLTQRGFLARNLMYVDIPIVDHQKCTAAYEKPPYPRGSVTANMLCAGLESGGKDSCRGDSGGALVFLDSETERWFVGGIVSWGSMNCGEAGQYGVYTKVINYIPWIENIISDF

SMILES	pKi ([1]; read-out: MASP-2 Ki)	pIC50 [2]	pKi [3]	pKi ([4]; read-out: mMASP-2 Ki)	also measured
C[C@H](NC(=O)[C@@H](CCc1ccccc1)NCCCc1ccc(O)cc1)C(=O)NCc1ccc(C(=N)N)cc1 [compound 1145]	> 6.30	6.30 to 7.30	–	–	–
N=C(N)c1ccc(CNC(=O)[C@@H]2CCN2C(=O)[C@H](NCC(=O)O)C2CCCCC2)cc1O [compound 1116, ((R)-2-((S)-2-((4-Carbamimidoyl-3-hydroxybenzyl)carbamoyl)azetidin-1-yl)-1-cyclohexyl-2-oxoethyl)glycine]	–	4.30 to 5.30	> 6.30	–	–
C[C@H](NC(=O)[C@H](N)C1Cc2ccccc2C1)C(=O)NCc1ccc2nc(N)n(C)c2c1 [compound 1171]	–	< 4.30	< 4.60	–	–
N=C(N)c1ccc(CNC(=O)[C@@H]2CCN2C(=O)[C@H](N)C2CCCC2)cc1 [compound 1008]	–	4.30 to 5.30	> 6.30	–	–
C[C@H](NC(=O)[C@H]1C[C@@H](c2ccccc2)CCN1)C(=O)NCc1cc(Cl)ccc1O [compound 1078]	> 6.30	5.30 to 6.30	–	–	–
Cc1nc(N)ccc1CNC(=O)[C@H](C)NC(=O)[C@H]1C[C@H](Cc2cccc3cnccc23)CN1 [compound 1343, (2R,4S)—N—((S)-1-(((6-Amino-2-methylpyridin-3-yl)methyl)amino)-1-oxopropan-2-yl)-4-(isoquinolin-5-ylmethyl)pyrrolidine-2-carboxamide Di-trifluoroacetate salt]	–	6.30 to 7.30	–	–	–
N=C(N)c1ccc(CNC(=O)CNC(=O)[C@H](NCC(=O)O)C2CCCCC2)cc1 [compound 1054]	–	4.30 to 5.30	–	–	–
CCNC(=O)COc1ccc(Cl)cc1CNC(=O)[C@H](C)NC(=O)[C@H](N)CCc1ccccc1 [compound 1137, (R)-2-Amino-N—((S)-1-((5-chloro-2-(2-(ethylamino)-2-oxoethoxy)benzyl)amino)-1-oxopropan-2-yl)-4-phenylbutanamide]	–	< 4.30	–	–	–
C[C@H](NC(=O)[C@H]1Cc2ccccc2CN1)C(=O)NCc1ccc2c(N)nccc2c1 [compound 1053]	–	5.30 to 6.30	–	–	–
C[C@H](NC(=O)[C@H](NCC(=O)O)C1Cc2ccccc2C1)C(=O)NCc1ccc(C(=N)N)cc1 [compound 1123]	–	5.30 to 6.30	–	–	–
Cc1cccc(C2CCNC(C(=O)N[C@@H](C)C(=O)NCc3ccc(C(=N)N)cc3)C2)c1 (stereo partly shown) [compound 1098]	> 6.30	> 7.30	–	–	–
N=C(N)c1ccc(CNC(=O)[C@@H]2CCN2C(=O)[C@@H](N)C2CCCCC2)cc1 [compound 1018]	–	< 4.30	–	–	–
C[C@H](NC(=O)[C@H](CCc1ccccc1)NCc1c[nH]c2ccccc12)C(=O)NCc1ccc(C(=N)N)cc1 [compound 1223]	> 6.30	–	> 6.30	> 6.30	MASP-2 vs. thrombin selectivity [1, 5]: *** (25 to 100-fold)
C[C@H](NC(=O)[C@H]1C[C@@H](c2cccc(CN)c2)CN1)C(=O)NCc1ccc(C(=N)N)cc1 [compound 1277, (2R,4S)-4-(3-(Aminomethyl)phenyl)-N-((S)-1-((4-carbamimidoylbenzyl)amino)-1-oxopropan-2-yl)pyrrolidine-2-carboxamide]	> 6.30	–	> 6.30	> 6.30	MASP-2 vs. thrombin selectivity [1, 6]: ** (≥5.0 to <25-fold)
C[C@H](NC(=O)[C@H](N)CCc1ccccc1)C(=O)NCc1ccnc(N)c1 [compound 1296, (R)-2-Amino-N—((S)-1-(((2-aminopyridin-4-yl)methyl)amino)-1-oxopropan-2-yl)-4-phenylbutanamide Dihydrochloride]	–	–	< 4.60	< 4.60	pKi [1]: 5.00 to 5.60; MASP-2 vs. thrombin selectivity [1, 6]: ** (≥5.0 to <25-fold)
Cc1cccc([C@H]2CN[C@@H](C(=O)N[C@@H](C)C(=O)NCc3ccc(C(=N)N)cc3)C2)c1 [compound 1247, (2R,4S)—N—((S)-1-((4-Carbamimidoylbenzyl)amino)-1-oxopropan-2-yl)-4-(m-tolyl)pyrrolidine-2-carboxamide]	> 6.30	–	–	> 6.30	MASP-2 vs. thrombin selectivity [1, 6]: *** (≥25 to <100-fold); Ki [3]: 0.5 to 2.5 µM
C[C@H](NC(=O)c1cc(-c2ccccc2)n[nH]1)C(=O)NCc1ccc(C(=N)N)cc1 [compound 1295, (S)—N-(1-((4-Carbamimidoylbenzyl)amino)-1-oxopropan-2-yl)-3-phenyl-1H-pyrazole-5-carboxamide]	> 6.30	–	–	> 6.30	MASP-2 vs. thrombin selectivity [1, 6]: *** (≥25 to <100-fold); Ki [3]: 2.5 to 10 µM
C[C@H](NC(=O)[C@H]1C[C@H](c2ccccc2)CN1)C(=O)NCc1cc(Cl)cnc1N [compound 1358, (2R,4R)—N—((S)-1-(((2-Amino-5-chloropyridin-3-yl)methyl)amino)-1-oxopropan-2-yl)-4-phenylpyrrolidine-2-carboxamide Di-trifluoroacetate salt]	–	–	< 4.60	< 4.60	pKi [1]: 5.60 to 6.30
C[C@H](NC(=O)[C@@H](CCc1ccccc1)NCc1ccc[nH]1)C(=O)NCc1ccc(C(=N)N)cc1 [compound 1128]	> 6.30	–	> 6.30	> 6.30	MASP-2 vs. thrombin selectivity [1, 5]: * (1.0 to 5.0-fold)
Cc1nc(N)ccc1CNC(=O)[C@H](C)NC(=O)[C@@H]1C[C@@H](Cc2ccccc2)CN1 [compound 1282, (2S,4R)—N—((S)-1-(((6-Amino-2-methylpyridin-3-yl)methyl)amino)-1-oxopropan-2-yl)-4-benzylpyrrolidine-2-carboxamide]	–	–	< 4.60	< 4.60	pKi [1]: 4.60 to 5.00
C[C@H](NC(=O)[C@@H](CCc1ccccc1)NCc1ccc(N2CCOCC2)cc1)C(=O)NCc1ccc(C(=N)N)cc1 [compound 1149]	> 6.30	–	> 6.30	> 6.30	MASP-2 vs. thrombin selectivity [1, 5]: ** (5.0 to 25-fold)
C[C@H](NC(=O)[C@H]1C[C@H](c2ccccc2)CN1)C(=O)NCc1ccc2c(N)n[nH]c2c1 [compound 1425, (2R,4R)—N—((S)-1-(((3-Amino-1H-indazol-6-yl)methyl)amino)-1-oxopropan-2-yl)-4-phenylpyrrolidine-2-carboxamide Trifluoroacetate salt]	–	–	< 4.60	5.60 to 6.30	pKi [1]: 5.00 to 5.60
C[C@H](NC(=O)[C@H]1C[C@H](c2ccccc2)CN1)C(=O)NCC1CCc2nc(N)sc2C1 (stereo partly drawn) [compound 1281, (2R,4R)—N-((2S)-1-(((2-Amino-4,5,6,7-tetrahydrobenzo[d]thiazol-6-yl)methyl)amino)-1-oxopropan-2-yl)-4-phenylpyrrolidine-2-carboxamide]	–	–	< 4.60	< 4.60	pKi [1]: 5.00 to 5.60
C[C@H](NC(=O)[C@H](N)CCc1ccc(Cl)cc1)C(=O)NCc1ccc(C(=N)N)cc1 [compound 1080]	> 6.30	–	> 6.30	> 6.30	MASP-2 vs. thrombin selectivity [1, 5]: ** (5.0 to 25-fold)
C[C@H](NC(=O)[C@H]1C[C@H](c2ccccc2)CN1)C(=O)NCc1cc2ccncc2[nH]1 [compound 1495, (2R,4R)—N—((S)-1-(((1H-Pyrrolo[2,3-c]pyridin-2-yl)methyl)amino)-1-oxopropan-2-yl)-4-phenylpyrrolidine-2-carboxamide Di-trifluoroacetate salt]	5.00 to 5.60	–	< 4.60	–	MASP-2 vs. thrombin selectivity [1, 6]: ** (≥5.0 to <25-fold); pKi [4]: 5.60 to 6.30
C[C@H](NC(=O)[C@H]1C[C@H](c2ccccc2)CN1)C(=O)NCc1cc(Cl)ccc1NS(C)(=O)=O [compound 1274, (2R,4R)—N—((S)-1-((5-chloro-2-(methylsulfonamido)benzyl)amino)-1-oxopropan-2-yl)-4-phenylpyrrolidine-2-carboxamide]	–	–	< 4.60	4.60 to 5.00	pKi [1]: 5.00 to 5.60; MASP-2 vs. thrombin selectivity [1, 6]: ** (≥5.0 to <25-fold)
